Measurements reported in patent US7956041B2, “Prophylactic and therapeutic agent of diabetes mellitus” (Ajinomoto Co., Inc., priority 2002, dated 2011).

Key:
[1] = tested on: glucose-loaded rats (Wistar rats); test: Example I: blood glucose time course after oral glucose loading in rats; type: in vivo, rat; settings: glucose 1 g/kg p.o.
Procedure: Wistar rats (age of 7 weeks; male) were divided into groups with matched body weights. After 17-hour starvation, glucose was orally given at 1 g/kg to the animals. Immediately after the administration, the inhibitor A of renal glucose reabsorption or the inhibitor B of renal glucose reabsorption (A at 30 mg/kg or 60 mg/kg; B at 30 mg/kg or 80 mg/kg) or glibenclamide (1 mg/kg or 2 mg/kg) or nateglinide (50 mg/kg or 80 mg/kg) was orally given. Additionally, a group on the combined use of both of an inhibitor of renal glucose reabsorption and a hypoglycemic agent was also prepared. A vehicle was orally given to a control group after glucose administration.
Blood glucose was measured in a time course.

[2] = tested on: Type 2 diabetes model Zucker diabetic fatty rats; test: Example V: insulin content in pancreas of Zucker diabetic fatty rats (ELISA); type: in vivo, rat; settings: twice daily p.o., day 39, starved 18 h, inhibitor A 30 mg/kg and/or metformin 200 mg/kg, FIG. 5
Procedure: Type 2 diabetes model Zucker diabetic fatty rats (age 15 weeks) were divided into groups with matched blood glucose levels and body weights. Subsequently, the inhibitor A of renal glucose reabsorption at 30 mg/kg or metformin at 200 mg/kg was orally given twice daily. Further, a group to be on a combined use of the inhibitor A of renal glucose reabsorption (30 mg/kg) and metformin (200 mg/kg) was prepared. The agents were orally given twice daily at the same time period as in the case of the groups administered with a single one of these agents. Only a vehicle was orally given twice daily to the animals in a control group. On day 39 from the start of administration, the animals were starved for 18 hours. Then, pancreas was resected from the animals, for the assay of insulin in pancreas homogenates by ELISA, to compare the groups in terms of insulin content in pancreas.
Zucker diabetic fatty rat is a type 2 diabetic model animal, where the sustainment of hyperglycemic conditions induces a high concentration of glycated hemoglobin so that the aging of the model animal involves the decrease of the insulin content in pancreas.

[3] = tested on: Type 2 diabetic model GK rats; test: Example III: blood glucose on day 25 of once daily dosing in GK rats; type: in vivo, rat; settings: once daily p.o., FIG. 4
Procedure: Type 2 diabetic model GK rats (age of 7 weeks; male) were divided into groups with matched blood glucose levels and body weights, for once daily oral administration of the inhibitor A of renal glucose reabsorption (30 mg/kg) or glibenclamide at 3 or 6 mg/kg. Further, a group given with a combination of the inhibitor A of renal glucose reabsorption at 30 mg/kg and glibenclamide at 3 mg/kg was prepared. These agents were orally given once daily at the same time period as in the group administered with a single one agent. Only a vehicle was given orally to a control group. On day 25 after the start of administration, blood glucose was assayed sequentially, to compare the groups in terms of the resulting blood glucose levels.

[4] = tested on: glucose-loaded mice (KK mice); test: Example II: blood glucose time course after oral glucose loading in KK mice; type: in vivo, mouse; settings: glucose 1 g/kg p.o., FIG. 3; for Blood glucose 30 minutes after glucose loading / Blood glucose 60 minutes after glucose loading / Blood glucose 2 hours after glucose loading and thereafter: metformin 200 mg/kg, inhibitor A 30 mg/kg p.o., vs control; for Pattern of glycemic suppression at elevated dose: metformin 300 mg/kg, inhibitor A 45 mg/kg
Procedure: KK mice (age of 25 weeks; male) fed with a commercially available high-calories feed for breeding (CMF; Oriental Yeast) were divided into groups with matched body weights. After starvation for 17 hours, glucose was orally given at 1 g/kg. Immediately thereafter, the inhibitor A of renal glucose reabsorption (30 mg/kg or 45 mg/kg) or metformin (200 mg/kg or 300 mg/kg) was orally given. Additionally, a group given with the inhibitor A of renal glucose reabsorption (30 mg/kg) and metformin (200 mg/kg) was prepared. A vehicle was orally given to a control group after glucose dosing.
Blood glucose level was assayed in a time course.

Male Wistar rats [5] = test: Test Example 1B: excretion action of urine sugar in rat; type: in vivo; settings: oral administration, 24 hours
Procedure: Male Wistar rats aged 5 weeks (purchased from Charles River Japan, Inc.) were acclimatized in metabolic cages for one week, for use at this experiment. The test compounds suspended in olive oil were prepared into solutions to a dose of 5 ml per 1 kg rat body weight. After the rats were starved for 4 hours, the test compounds were orally given at 10, 30 and 100 mg/kg to the rats at 11 am. Immediately after dosing until 24 hours later, urine was collected. The volume of urine was measured. Then, urine glucose concentration was assayed by glucose oxidase method, to calculate the glucose excretion into urine per individual per day. As a positive control, 3-(5-benzo[b]furanyl)-2′-(6-o-methoxycarbonyl-β-D-glucopyranosyloxy)-6′-hydroxy-4′-methylpropiophenone [under a different name of 3-(benzo[b]furan-5-yl)-2′,6′-dihydroxy-4′-methylpropiophenone 2′-o-(6-o-methoxycarbonyl-β-D-glucopyranoside)] was used.

Male Wistar rats [6] = test: Test Example 2A: excretion action of urine sugar in rat; type: in vivo; settings: urine collected 24 hours
Procedure: Male Wistar rats aged 5 weeks (purchased from Charles River Japan, Inc.) were acclimatized in metabolic cages for one week, for use at this experiment. The test compounds suspended in olive oil were dosed at 5 ml per 1 kg rat body weight.
After the rats were starved for 4 hours, the test compounds were orally given to the rats at 11 am. Immediately after dosing until 24 hours later, urine was collected. The volume of urine was measured. Then, urine sugar concentration was assayed by glucose oxidase method, to calculate the glucose excretion into urine per individual per day.

[7] = glibenclamide 1 mg/kg and/or inhibitor A 30 mg/kg p.o., vs vehicle, FIG. 1
[8] = glibenclamide 2 mg/kg, inhibitor A 60 mg/kg, FIG. 1
[9] = glibenclamide 3 mg/kg and/or inhibitor A 30 mg/kg
[10] = nateglinide 50 mg/kg and/or inhibitor B 30 mg/kg p.o., vs vehicle, FIG. 2

## CCc1ccc(Cc2c(O[C@@H]3O[C@H](CO)[C@@H](O)[C@H](O)[C@H]3O)nn(C3CCC3)c2C(F)(F)F)cc1 [1′-cyclobutyl-4′-[(4-ethylphenyl)methyl]-5′-trifluoromethyl-1H-pyrazole-3′-o-β-D-glucopyranoside]
[1]; [7]
  Blood glucose immediately after glucose loading (30 minutes): suppressed hyperglycemia observed in the vehicle group immediately after glucose loading
[1]; [8]
  Pattern of glycemic suppression at increased dose: The pattern of glycemic suppression did not change even when the dose was elevated
[2]
  Insulin content in pancreas: no difference was observed in insulin content in spleen
[3]; [9]
  Blood glucose level on day 25: significantly lowered, compared with the group given the vehicle
[4]
  Blood glucose 30 minutes after glucose loading: could suppress hyperglycemia 30 minutes and 60 minutes after glucose loading
  Blood glucose 60 minutes after glucose loading: could suppress hyperglycemia 30 minutes and 60 minutes after glucose loading
  Blood glucose 2 hours after glucose loading and thereafter: could not suppress the blood glucose level 2 hours later and thereafter
  Pattern of glycemic suppression at elevated dose: the pattern of glycemic suppression did not change even when the dose was elevated

## CCc1ccc(Cc2c(OC3OC(COC(=O)OC)C(O)C(O)C3O)nn(C(CF)CF)c2C(F)(F)F)cc1 [Production Example 2B, 4′-[(4′-ethylphenyl)methyl]-1′-(1′,3′-difluoro-2′-propyl)-5′-(trifluoromethyl)-1H-pyrazole-3′-o-(6-o-methoxycarbonyl-β-D-glucopyranoside)]
Male Wistar rats [5]; Dose 10 mg/kg
  Excreted urine sugar: 136 mg
Male Wistar rats [5]; Dose 30 mg/kg
  Excreted urine sugar: 272 mg
Male Wistar rats [5]; Dose 100 mg/kg
  Excreted urine sugar: 524 mg

## CCc1ccc(Cc2c(O[C@@H]3O[C@H](COC(=O)OC)[C@@H](O)[C@H](O)[C@H]3O)nn(Cc3ccccc3)c2C(F)(F)F)cc1 [Production Example 4-A, 4′-[(4′-ethylphenyl)methyl]-1′-benzyl-5′-trifluoromethyl-1H-pyrazole-3′-o-(6-carbomethoxy)-β-D-glucopyranoside]
Male Wistar rats [6]; Dose 100 mg/kg p.o.
  Excreted urine sugar: 27 mg

## CCc1ccc(Cc2c(O[C@@H]3O[C@H](COC(=O)OC)[C@@H](O)[C@H](O)[C@H]3O)nn(Cc3ccc(OC)cc3)c2C(F)(F)F)cc1 [Production Example 6-A, 4′-[(4′-ethylphenyl)methyl]-1′-[(4′-methoxyphenyl)methyl]-5′-trifluoromethyl-1H-pyrazole-3′-o-(6-carbomethoxy)-β-D-glucopyranoside]
Male Wistar rats [6]; Dose 100 mg/kg p.o.
  Excreted urine sugar: 59 mg

## CCc1ccc(Cc2c(O[C@@H]3O[C@H](COC(=O)OC)[C@@H](O)[C@H](O)[C@H]3O)nn(-c3ccccc3)c2C(F)(F)F)cc1 [Production Example 8-A, 4′-[(4′-ethylphenyl)methyl]-1′-phenyl-5′-trifluoromethyl-1H-pyrazole-3′-o-(6-carbomethoxy)-β-D-glucopyranoside]
Male Wistar rats [6]; Dose 100 mg/kg p.o.
  Excreted urine sugar: 4.1 mg

## COC(=O)OC[C@H]1O[C@@H](Oc2nn(C(C)C)c(C)c2Cc2ccc(OC)c(F)c2)[C@H](O)[C@@H](O)[C@@H]1O [Production Example 10-A, 4′-[(3′-fluoro-4′-methoxyphenyl)methyl]-1′-isopropyl-5′-methyl-1H-pyrazole-3′-o-(6-carbomethoxy)-β-D-glucopyranoside]
Male Wistar rats [6]; Dose 100 mg/kg p.o.
  Excreted urine sugar: 734 mg

## COC(=O)OC[C@H]1O[C@@H](Oc2nn(C(C)C)c(C)c2Cc2ccc(C)c(F)c2)[C@H](O)[C@@H](O)[C@@H]1O [Production Example 14-A, 4′-[(3′-fluoro-4′-methylphenyl)methyl]-1′-isopropyl-5′-methyl-1H-pyrazole-3′-o-(6-carbomethoxy)-β-D-glucopyranoside]
Male Wistar rats [6]; Dose 100 mg/kg p.o.
  Excreted urine sugar: 918 mg

## CCc1ccc(Cc2c(O[C@@H]3O[C@H](COC(=O)OC)[C@@H](O)[C@H](O)[C@H]3O)nn(C(C)C)c2C)cc1 [Production Example 16-A, 4′-[(4-ethylphenyl)methyl]-1′-isopropyl-5′-methyl-1H-pyrazole-3′-o-(6-carbomethoxy)-β-D-glucopyranoside]
Male Wistar rats [6]; Dose 3 mg/kg p.o.
  Excreted urine sugar: 28 mg
Male Wistar rats [6]; Dose 10 mg/kg p.o.
  Excreted urine sugar: 263 mg
Male Wistar rats [6]; Dose 30 mg/kg p.o.
  Excreted urine sugar: 294 mg
Male Wistar rats [6]; Dose 100 mg/kg p.o.
  Excreted urine sugar: 598 mg

## Cc1[nH]nc(O[C@@H]2O[C@H](CO)[C@@H](O)[C@H](O)[C@H]2O)c1Cc1ccc(OC(C)C)cc1 [Reference Production Example 1, 4-[(4-isopropoxyphenyl)methyl]-5-methyl-1H-pyrazole-3-o-β-D-glucopyranoside, reference compound]
Male Wistar rats [6]; Dose 100 mg/kg p.o.
  Excreted urine sugar: 14 mg

## COc1ccc(Cl)cc1C(=O)NCCc1ccc(S(=O)(=O)NC(=O)NC2CCCCC2)cc1 [glibenclamide]
[1]; [7]
  Blood glucose 120 minutes after glucose loading and thereafter: lowered blood glucose 120 minutes after glucose loading and thereafter
  Blood glucose immediately after glucose loading (30 minutes): did not suppress hyperglycemia immediately after glucose loading
[1]; [8]
  Pattern of glycemic suppression at increased dose: did not change changed the pattern of glycemic suppression
[3]; [9]
  Blood glucose level on day 25: no difference was observed from the vehicle-dosed group in terms of the blood glucose levels
[3]; glibenclamide 6 mg/kg
  Blood glucose level on day 25: did not produce any difference in blood glucose level from the vehicle-dosed group

## CN(C)C(=N)N=C(N)N [metformin, reference compound]
[2]
  Insulin content in pancreas: no difference was observed in insulin content in spleen
[4]
  Blood glucose 30 minutes after glucose loading: did not suppress the increase of blood glucose in the mice 30 minutes after glucose loading
  Blood glucose 60 minutes after glucose loading: suppressed the increase 60 minutes later and thereafter
  Blood glucose 2 hours after glucose loading and thereafter: suppressed the increase 60 minutes later and thereafter
  Pattern of glycemic suppression at elevated dose: The pattern of glycemic suppression did not change even when the dose was elevated

## CC(C)[C@H]1CC[C@H](C(=O)N[C@H](Cc2ccccc2)C(=O)O)CC1 [nateglinide]
[1]; [10]
  Blood glucose 30 minutes after glucose loading: more highly suppressed hyperglycemia immediately after glucose loading (30 minutes and 60 minutes)
  Blood glucose 60 minutes after glucose loading: more highly suppressed hyperglycemia immediately after glucose loading (30 minutes and 60 minutes)
[1]; nateglinide 50 mg/kg p.o., vs vehicle, FIG. 2
  Blood glucose 120 minutes after glucose loading and thereafter: did not lower the blood glucose level 120 minutes after glucose loading and thereafter
[1]; nateglinide 80 mg/kg, inhibitor B 80 mg/kg, FIG. 2
  Pattern of glycemic suppression at increased dose: the pattern of glycemic suppression did not change even by the elevation of the dose
